Laboratory results taken from paper PMC11219871, “Epigenetic-based differentiation therapy for Acute Myeloid Leukemia” (Nature Communications, 2024).

Columns and labels:
Assay in all cases: Epigenetic panel (BPS Bioscience)
Type in all cases: biochemical
PHF8 = biological target: T1, PHF8 (Homo sapiens, UniProt Q9UPP1)
T1 construct: purchased BPS Bioscience; Eurofins (HDAC4, 5, 7-11)
Excerpt: (§1) The selectivity of CM-444 and CM-1758 against other epigenetic targets, including histone demethylase (JMJD2A, JMJD2B, JMJD2C, JMJD2D, JMJD2E, JMJD3, JMJD1A, LSD1, Jarid1A, Jarid1B, Jarid1C, FBXL10, FBXL11, JHDM1D, JMJD1B, PHF8, LSD2 and UTX); histone acetyltransferases (GCN5, P300); histone methyltransferases (G9a, GLP, MLL1, SET7/9, SUV39H1, SUV39H2, PRMT1, PRMT3, PRMT4, PRMT5, PRMT6, PRMT8, PRMT9, NSD1, NSD2, EZH1, EZH2, SETDB1, SETD2, SET8, SUV4-20H1, SMYD2, SMYD3, DOT1L, EZH2 (A677G), EZH2 (A677G), EZH2 (A738T), EZH2 (Y641S), EZH2 (P132S), EZH2 (Y641C), EZH2 (Y641F), EZH2 (Y641H), EZH2 (Y641N)); bromodomains (ATAD2B, ATAD2A, BRD1, BRD9, BPTF/FALZ, CeCR2, BRPF3, BRD3 (BD1 + BD2), BAZ2B, WDR9, TAF1 (BD2), TAF1L (BD2), TAF1L (BD1 + BD2), BRD2 (BD1), BRD2 (BD2), BRD2 (BD1 + BD2), BRD3 (BD1), BRD3 (BD2), BRD4 (BD1), BRD4 (BD2), BRD4 (BD1 + BD2), BRDT (BD1), BRDT (BD1 + BD2), CREBBP, SMARCA2A, SMARCA4/BRG1); DNA methyltranferases (DNMT1, DNMT3A/3L and DNMT3B/3L), and sirtuin histone deacetylases (SIRT1, SIRT2, SIRT3, SIRT5 and SIRT6), were determined by BPS Bioscience (http://www.bpsbioscience.com/index.ph). Binding experiments were performed in duplicate at a concentration of 10 μM.

P300 = biological target: T2, P300 (Homo sapiens, UniProt Q09472)
T2 construct: purchased BPS Bioscience; Eurofins (HDAC4, 5, 7-11)
Excerpt: as §1

DOT1L = biological target: T3, DOT1L (Homo sapiens, UniProt Q8TEK3)
T3 construct: purchased BPS Bioscience; Eurofins (HDAC4, 5, 7-11)
Excerpt: as §1

SIRT1 = biological target: T4, SIRT1 (Homo sapiens, UniProt Q96EB6)
T4 construct: purchased BPS Bioscience; Eurofins (HDAC4, 5, 7-11)
Excerpt: as §1

LSD1 = biological target: T5, LSD1 (Homo sapiens, UniProt O60341)
T5 construct: purchased BPS Bioscience; Eurofins (HDAC4, 5, 7-11)
Excerpt: as §1

FBXL10 = biological target: T6, FBXL10 (Homo sapiens, UniProt Q8NHM5)
T6 construct: purchased BPS Bioscience (contracted assay service)
T6 sequence (Q8NHM5 1-1336): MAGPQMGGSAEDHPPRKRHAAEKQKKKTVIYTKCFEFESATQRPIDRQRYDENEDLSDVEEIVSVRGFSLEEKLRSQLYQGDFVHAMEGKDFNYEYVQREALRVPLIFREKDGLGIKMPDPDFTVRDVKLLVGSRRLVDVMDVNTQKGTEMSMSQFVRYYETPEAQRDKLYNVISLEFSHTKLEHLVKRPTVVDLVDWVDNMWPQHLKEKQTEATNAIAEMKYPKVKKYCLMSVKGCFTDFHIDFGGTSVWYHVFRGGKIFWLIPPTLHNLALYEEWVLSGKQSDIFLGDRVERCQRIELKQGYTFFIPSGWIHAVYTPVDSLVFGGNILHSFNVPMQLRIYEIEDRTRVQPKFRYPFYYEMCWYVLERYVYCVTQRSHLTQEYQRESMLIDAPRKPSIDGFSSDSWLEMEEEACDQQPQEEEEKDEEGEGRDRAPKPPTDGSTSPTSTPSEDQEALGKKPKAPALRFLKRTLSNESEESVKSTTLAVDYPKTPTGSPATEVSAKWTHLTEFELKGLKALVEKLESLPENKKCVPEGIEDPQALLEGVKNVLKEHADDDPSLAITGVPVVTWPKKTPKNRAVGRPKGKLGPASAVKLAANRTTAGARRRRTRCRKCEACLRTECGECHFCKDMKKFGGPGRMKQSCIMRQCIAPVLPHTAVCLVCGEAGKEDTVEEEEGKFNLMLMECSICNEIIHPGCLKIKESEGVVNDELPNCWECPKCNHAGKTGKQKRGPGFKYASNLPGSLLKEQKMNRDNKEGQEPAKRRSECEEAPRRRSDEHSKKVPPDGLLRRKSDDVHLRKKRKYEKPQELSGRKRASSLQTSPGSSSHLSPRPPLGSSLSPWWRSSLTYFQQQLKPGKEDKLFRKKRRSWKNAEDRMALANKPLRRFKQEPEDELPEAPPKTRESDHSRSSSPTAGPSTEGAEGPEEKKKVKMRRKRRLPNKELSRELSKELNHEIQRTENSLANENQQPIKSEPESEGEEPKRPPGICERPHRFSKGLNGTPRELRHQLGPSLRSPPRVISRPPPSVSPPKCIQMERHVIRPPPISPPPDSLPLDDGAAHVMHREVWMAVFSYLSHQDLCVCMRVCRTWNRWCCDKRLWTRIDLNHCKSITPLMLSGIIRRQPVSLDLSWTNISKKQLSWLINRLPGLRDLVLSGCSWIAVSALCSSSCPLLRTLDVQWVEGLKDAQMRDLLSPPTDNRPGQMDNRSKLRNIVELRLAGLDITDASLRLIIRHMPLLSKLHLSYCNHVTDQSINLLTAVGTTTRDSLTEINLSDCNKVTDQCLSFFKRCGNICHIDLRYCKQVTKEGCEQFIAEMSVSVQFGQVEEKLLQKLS
Excerpt: as §1

SMYD2 = biological target: T7, SMYD2 (Homo sapiens, UniProt Q9NRG4)
T7 construct: purchased BPS Bioscience; Eurofins (HDAC4, 5, 7-11)
Excerpt: as §1

GLP = biological target: T8, GLP (Homo sapiens, UniProt Q9H9B1)
T8 construct: purchased BPS Bioscience; Eurofins (HDAC4, 5, 7-11)
Excerpt: as §1

SUV39H2 = biological target: T9, SUV39H2 (Homo sapiens, UniProt Q9H5I1)
T9 construct: purchased BPS Bioscience; Eurofins (HDAC4, 5, 7-11)
Excerpt: as §1

SIRT6 = biological target: T10, SIRT6 (Homo sapiens, UniProt Q8N6T7)
T10 construct: purchased BPS Bioscience; Eurofins (HDAC4, 5, 7-11)
Excerpt: as §1

EZH2 (Y641H) = biological target: T11, EZH2 (Y641H) (Homo sapiens, UniProt Q15910, Y641H)
T11 construct: purchased BPS Bioscience; Eurofins (HDAC4, 5, 7-11)
Excerpt: as §1

SETDB1 = biological target: T12, SETDB1 (Homo sapiens, UniProt Q15047)
T12 construct: purchased BPS Bioscience; Eurofins (HDAC4, 5, 7-11)
Excerpt: as §1

EZH2 (Y641N) = biological target: T13, EZH2 (Y641N) (Homo sapiens, UniProt Q15910, Y641N)
T13 construct: purchased BPS Bioscience; Eurofins (HDAC4, 5, 7-11)
Excerpt: as §1

T4 sequence (Q96EB6 whole entry): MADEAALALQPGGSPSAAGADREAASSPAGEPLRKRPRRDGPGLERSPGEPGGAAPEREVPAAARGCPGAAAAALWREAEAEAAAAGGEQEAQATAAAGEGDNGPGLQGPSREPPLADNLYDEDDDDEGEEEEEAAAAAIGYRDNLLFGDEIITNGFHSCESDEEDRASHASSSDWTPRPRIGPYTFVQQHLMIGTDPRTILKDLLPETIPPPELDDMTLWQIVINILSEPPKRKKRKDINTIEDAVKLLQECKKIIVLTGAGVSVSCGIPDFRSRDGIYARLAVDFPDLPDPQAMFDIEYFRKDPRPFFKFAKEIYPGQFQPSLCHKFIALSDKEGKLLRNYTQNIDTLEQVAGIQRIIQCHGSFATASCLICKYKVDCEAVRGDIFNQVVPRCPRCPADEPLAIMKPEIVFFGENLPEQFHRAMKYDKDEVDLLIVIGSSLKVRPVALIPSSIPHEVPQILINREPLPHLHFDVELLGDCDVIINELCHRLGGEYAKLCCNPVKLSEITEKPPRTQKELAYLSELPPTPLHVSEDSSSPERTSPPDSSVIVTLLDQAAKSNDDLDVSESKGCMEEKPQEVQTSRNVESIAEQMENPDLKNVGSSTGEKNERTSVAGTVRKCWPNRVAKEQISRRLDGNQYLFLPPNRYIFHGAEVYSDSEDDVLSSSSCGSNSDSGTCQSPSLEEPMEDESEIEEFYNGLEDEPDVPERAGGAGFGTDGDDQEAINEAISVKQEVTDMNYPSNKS
T9 sequence (Q9H5I1 whole entry): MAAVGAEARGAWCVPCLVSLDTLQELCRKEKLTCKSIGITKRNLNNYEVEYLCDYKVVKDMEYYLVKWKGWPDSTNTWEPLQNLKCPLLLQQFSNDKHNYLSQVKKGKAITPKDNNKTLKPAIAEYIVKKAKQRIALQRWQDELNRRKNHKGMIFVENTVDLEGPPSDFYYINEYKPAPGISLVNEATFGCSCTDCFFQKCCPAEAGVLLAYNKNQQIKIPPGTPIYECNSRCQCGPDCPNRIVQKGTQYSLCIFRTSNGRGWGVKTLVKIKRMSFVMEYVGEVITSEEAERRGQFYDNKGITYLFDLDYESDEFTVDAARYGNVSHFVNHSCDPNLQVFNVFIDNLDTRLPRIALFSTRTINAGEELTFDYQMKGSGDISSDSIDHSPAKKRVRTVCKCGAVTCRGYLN
T13 sequence (Q15910 whole entry Y641N): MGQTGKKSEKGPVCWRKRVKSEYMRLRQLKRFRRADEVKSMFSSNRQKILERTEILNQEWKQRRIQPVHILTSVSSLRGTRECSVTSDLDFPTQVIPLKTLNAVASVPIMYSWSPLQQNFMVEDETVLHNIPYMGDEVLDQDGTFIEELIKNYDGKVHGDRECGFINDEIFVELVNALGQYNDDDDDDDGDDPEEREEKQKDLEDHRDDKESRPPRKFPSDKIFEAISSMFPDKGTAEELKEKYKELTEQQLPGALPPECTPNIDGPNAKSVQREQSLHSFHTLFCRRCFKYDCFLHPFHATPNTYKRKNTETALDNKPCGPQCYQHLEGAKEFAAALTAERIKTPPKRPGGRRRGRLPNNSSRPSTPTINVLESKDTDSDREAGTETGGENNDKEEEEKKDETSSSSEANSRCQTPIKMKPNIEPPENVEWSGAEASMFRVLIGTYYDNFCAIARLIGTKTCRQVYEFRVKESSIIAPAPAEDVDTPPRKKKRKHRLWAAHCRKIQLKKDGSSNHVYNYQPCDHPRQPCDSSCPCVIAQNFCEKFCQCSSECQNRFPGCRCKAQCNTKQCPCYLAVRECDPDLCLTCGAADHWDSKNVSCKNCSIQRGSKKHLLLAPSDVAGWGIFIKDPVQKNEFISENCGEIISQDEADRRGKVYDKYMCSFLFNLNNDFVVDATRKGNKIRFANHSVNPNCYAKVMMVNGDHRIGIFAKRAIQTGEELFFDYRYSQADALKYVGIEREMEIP
T13 sequence (O75530 whole entry partner): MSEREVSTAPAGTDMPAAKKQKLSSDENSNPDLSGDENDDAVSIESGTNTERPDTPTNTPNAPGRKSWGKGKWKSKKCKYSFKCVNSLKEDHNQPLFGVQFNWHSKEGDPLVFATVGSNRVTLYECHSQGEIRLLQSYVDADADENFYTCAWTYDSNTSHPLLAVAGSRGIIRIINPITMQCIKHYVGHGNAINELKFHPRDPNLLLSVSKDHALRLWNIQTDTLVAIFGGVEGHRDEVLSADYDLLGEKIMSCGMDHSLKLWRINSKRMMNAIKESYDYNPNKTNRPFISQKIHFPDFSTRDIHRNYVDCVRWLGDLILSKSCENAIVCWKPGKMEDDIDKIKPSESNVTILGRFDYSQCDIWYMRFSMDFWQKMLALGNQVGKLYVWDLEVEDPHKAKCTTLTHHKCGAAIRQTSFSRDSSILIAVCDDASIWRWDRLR
T13 sequence (Q15022 whole entry partner): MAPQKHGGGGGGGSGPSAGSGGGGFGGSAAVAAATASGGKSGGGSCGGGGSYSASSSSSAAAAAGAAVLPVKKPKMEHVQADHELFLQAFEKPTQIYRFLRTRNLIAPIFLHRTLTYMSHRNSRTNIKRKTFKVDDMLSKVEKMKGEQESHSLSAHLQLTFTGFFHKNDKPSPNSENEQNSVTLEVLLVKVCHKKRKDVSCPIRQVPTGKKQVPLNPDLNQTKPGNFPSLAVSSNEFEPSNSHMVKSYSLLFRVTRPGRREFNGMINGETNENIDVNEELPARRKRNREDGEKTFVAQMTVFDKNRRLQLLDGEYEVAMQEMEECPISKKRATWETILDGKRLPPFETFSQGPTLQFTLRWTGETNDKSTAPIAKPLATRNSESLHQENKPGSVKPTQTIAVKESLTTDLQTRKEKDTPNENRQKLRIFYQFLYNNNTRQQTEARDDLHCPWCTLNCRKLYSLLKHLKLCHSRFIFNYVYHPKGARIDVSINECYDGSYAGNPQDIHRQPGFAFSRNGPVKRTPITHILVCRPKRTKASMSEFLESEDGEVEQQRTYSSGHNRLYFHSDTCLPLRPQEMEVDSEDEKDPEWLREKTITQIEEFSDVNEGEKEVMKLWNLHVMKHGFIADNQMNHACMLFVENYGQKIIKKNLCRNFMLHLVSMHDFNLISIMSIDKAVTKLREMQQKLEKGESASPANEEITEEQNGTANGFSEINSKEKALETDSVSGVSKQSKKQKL
T13 sequence (Q09028 whole entry partner): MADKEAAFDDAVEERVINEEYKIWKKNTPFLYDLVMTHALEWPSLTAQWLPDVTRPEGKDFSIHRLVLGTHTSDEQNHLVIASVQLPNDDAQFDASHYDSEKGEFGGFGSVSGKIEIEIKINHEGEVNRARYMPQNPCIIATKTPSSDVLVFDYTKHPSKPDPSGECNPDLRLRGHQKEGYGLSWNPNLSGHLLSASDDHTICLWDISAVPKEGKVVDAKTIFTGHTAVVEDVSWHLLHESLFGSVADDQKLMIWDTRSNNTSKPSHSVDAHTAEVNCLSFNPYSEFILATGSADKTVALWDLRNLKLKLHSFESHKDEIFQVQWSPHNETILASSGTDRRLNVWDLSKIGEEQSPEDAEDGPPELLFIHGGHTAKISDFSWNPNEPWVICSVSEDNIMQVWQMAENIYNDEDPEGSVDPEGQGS
T13 sequence (Q6ZN18 whole entry partner): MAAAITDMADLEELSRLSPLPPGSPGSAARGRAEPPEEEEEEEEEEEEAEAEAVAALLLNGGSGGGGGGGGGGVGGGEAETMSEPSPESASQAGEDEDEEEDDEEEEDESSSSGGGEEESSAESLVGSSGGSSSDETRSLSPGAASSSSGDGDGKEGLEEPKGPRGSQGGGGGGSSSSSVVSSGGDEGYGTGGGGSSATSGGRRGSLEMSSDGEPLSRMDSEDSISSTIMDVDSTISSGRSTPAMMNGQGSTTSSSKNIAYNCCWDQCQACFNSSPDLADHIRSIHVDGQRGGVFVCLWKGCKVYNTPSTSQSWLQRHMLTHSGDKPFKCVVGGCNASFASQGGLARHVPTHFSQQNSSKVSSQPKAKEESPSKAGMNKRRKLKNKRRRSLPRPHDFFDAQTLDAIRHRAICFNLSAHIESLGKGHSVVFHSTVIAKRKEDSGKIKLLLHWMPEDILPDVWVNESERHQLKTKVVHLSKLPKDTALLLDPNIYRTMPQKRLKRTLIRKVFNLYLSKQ
T11 sequence (Q15910 whole entry Y641H): as the sequence (Q15910 whole entry Y641N) above, with N641H counted along it
T11 sequence (O75530 whole entry partner): as the sequence (O75530 whole entry partner) above
T11 sequence (Q15022 whole entry partner): as the sequence (Q15022 whole entry partner) above
T11 sequence (Q09028 whole entry partner): as the sequence (Q09028 whole entry partner) above
T11 sequence (Q6ZN18 whole entry partner): as the sequence (Q6ZN18 whole entry partner) above
T10 sequence (Q8N6T7 whole entry): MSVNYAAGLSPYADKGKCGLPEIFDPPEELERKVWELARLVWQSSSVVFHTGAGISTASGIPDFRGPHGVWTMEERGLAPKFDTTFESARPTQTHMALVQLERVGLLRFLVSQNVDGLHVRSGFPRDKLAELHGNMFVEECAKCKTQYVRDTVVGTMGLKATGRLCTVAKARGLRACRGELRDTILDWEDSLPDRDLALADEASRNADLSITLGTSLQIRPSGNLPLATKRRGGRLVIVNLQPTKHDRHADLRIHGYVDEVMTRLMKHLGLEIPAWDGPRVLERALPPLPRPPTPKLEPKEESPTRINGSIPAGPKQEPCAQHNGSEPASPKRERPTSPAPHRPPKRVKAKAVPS

| Structure (SMILES) | inhibition at 10 µM (PHF8) | inhibition at 10 µM (P300) | inhibition at 10 µM (DOT1L) | inhibition at 10 µM (SIRT1) | inhibition at 10 µM (LSD1) | IC50 (FBXL10) | inhibition at 10 µM (FBXL10) | inhibition at 10 µM (SMYD2) | inhibition at 10 µM (GLP) | inhibition at 10 µM (SUV39H2) | inhibition at 10 µM (SIRT6) | inhibition at 10 µM (EZH2 (Y641H)) | inhibition at 10 µM (SETDB1) | inhibition at 10 µM (EZH2 (Y641N)) |
| --- | --- | --- | --- | --- | --- | --- | --- | --- | --- | --- | --- | --- | --- | --- |
| COc1cc2nc(-c3ccc(C)o3)cc(NCC3CCN(c4ncc(C(=O)NO)cn4)CC3)c2cc1OC [CM-444, 2-[4-[[[6,7-dimethoxy-2-(5-methyl-2-furyl)-4-quinolyl]amino]methyl]-1-piperidyl]pyrimidine-5-carbohydroxamic acid] | 6% | 10% | 0% | 13% | 16% | 6.7 µM | 58% | 9% | 0% | 0% | 15% | 0% | 0% | 2% |
| COc1cc2nc(-c3cc(C)oc3C)cc(NCC3CCN(c4ncc(C(=O)NO)cn4)CC3)c2cc1OC [CM-1758, 2-[4-[[[2-(2,5-dimethyl-3-furyl)-6,7-dimethoxy-4-quinolyl]amino]methyl] -1-piperidyl]pyrimidine-5-carbohydroxamic acid] | 12% | 0% | 0% | 1% | 20% | – | 34% | 16% | 7% | 1% | 4% | 0% | 3% | 0% |
